From ChEMBL document CHEMBL4219256, “Design, Synthesis, and Biological Evaluation of 4-Quinoline Carboxylic Acids as Inhibitors of Dihydroorotate Dehydrogenase” (J Med Chem, 2018)

How the values were obtained:
HCT-116 [1] = experiment: Antiproliferative activity against human HCT116 cells over-expressing DHODH after 72 hrs by MTT assay; assay type: functional, cell-based
MIA PaCa-2 = experiment: Antiproliferative activity against human MIAPaCa2 cells after 72 hrs by MTT assay; assay type: functional, cell-based
[2] = target: Dihydroorotate dehydrogenase (quinone), mitochondrial (Homo sapiens, UniProt Q02127)
Dihydroorotate dehydrogenase (quinone), mitochondrial, sequence (Q02127 whole entry): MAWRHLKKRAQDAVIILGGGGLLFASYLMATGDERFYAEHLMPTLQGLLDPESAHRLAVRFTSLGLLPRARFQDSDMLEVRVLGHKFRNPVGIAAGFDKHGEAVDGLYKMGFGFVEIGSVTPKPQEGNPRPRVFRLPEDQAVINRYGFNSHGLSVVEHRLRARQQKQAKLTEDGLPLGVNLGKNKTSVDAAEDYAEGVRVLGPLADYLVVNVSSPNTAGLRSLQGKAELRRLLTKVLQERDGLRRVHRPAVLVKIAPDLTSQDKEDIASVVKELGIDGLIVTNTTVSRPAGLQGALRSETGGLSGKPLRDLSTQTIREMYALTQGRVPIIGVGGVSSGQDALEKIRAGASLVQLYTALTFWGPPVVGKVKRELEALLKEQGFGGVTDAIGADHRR
Description: Inhibition of DHODH (unknown origin) expressed in Escherichia coli Rosetta2(DE3) assessed as reduction of DCIP using dihydroorotate as substrate preincubated for 30 mins followed by substrate addition in presence of CoQ10 measured after 1 hr

HL-60 = experiment: Antiproliferative activity against human HL60 cells after 72 hrs by MTT assay
[3] = Thermodynamic aqueous solubility of the compound in pH 7.4 phosphate buffer at 6.7 mg/ml after overnight incubation by CLND method; assay type: physicochemical
[4] = Thermodynamic aqueous solubility of the compound in pH 7.4 phosphate buffer at 8.7 mg/ml after overnight incubation by CLND method; assay type: physicochemical
[5] = Thermodynamic aqueous solubility of the compound in pH 7.4 phosphate buffer at 4.9 mg/ml after overnight incubation by CLND method; assay type: physicochemical
[6] = Elimination half life in CD-1 mouse at 10 mg/kg, iv; assay type: ADME, organism-based; details: in vivo, read-out: beta t1/2 (converted)
[7] = Apparent volume of distribution during terminal phase in CD-1 mouse at 20 mg/kg, po; assay type: ADME, organism-based; details: in vivo, read-out: Vz/F
[8] = AUC (0 to last) in CD-1 mouse at 10 mg/kg, iv; assay type: ADME, organism-based; set-up: dose 10 mg/kg, time 0 - last, route intravenous; details: in vivo
[9] = AUC (0 to infinity) in CD-1 mouse at 10 mg/kg, iv; assay type: ADME, organism-based; set-up: dose 10 mg/kg, time infinity, route intravenous; details: in vivo
[10] = AUC (0 to last) in CD-1 mouse at 20 mg/kg, po; assay type: ADME, organism-based; set-up: dose 20 mg/kg, route oral, time 0 - last; details: in vivo
[11] = Apparent clearance in CD-1 mouse at 20 mg/kg, po; assay type: ADME, organism-based; details: in vivo
[12] = AUC (0 to infinity) in CD-1 mouse at 20 mg/kg, po; assay type: ADME, organism-based; set-up: dose 20 mg/kg, time infinity, route oral; details: in vivo
[13] = Clearance in CD-1 mouse at 10 mg/kg, iv; assay type: ADME, organism-based; details: in vivo
[14] = Initial plasma concentration in CD-1 mouse at 10 mg/kg, iv; assay type: ADME, organism-based
Mus musculus = experiment: Oral bioavailability in CD-1 mouse at 20 mg/kg; assay type: ADME, organism-based; details: in vivo
[15] = Volume of distribution at steady state in CD-1 mouse at 10 mg/kg, iv; assay type: ADME, organism-based; details: in vivo, read-out: Vdss
[16] = Cmax in CD-1 mouse at 20 mg/kg, po; assay type: ADME, organism-based; set-up: dose 20 mg/kg, route oral; details: in vivo
[17] = Tmax in CD-1 mouse at 20 mg/kg, po; assay type: ADME, organism-based; details: in vivo
[18] = Elimination half life in CD-1 mouse at 20 mg/kg, po; assay type: ADME, organism-based; details: in vivo, read-out: beta t1/2 (converted)
[19] = Thermodynamic aqueous solubility of the compound in pH 7.4 phosphate buffer at 5.8 mg/ml after overnight incubation by CLND method; assay type: physicochemical
[20] = Cmax in human at 16 mg/m2 administered as 10 mins iv infusion; assay type: ADME, organism-based; set-up: route intravenous; details: in vivo
[21] = Cmax in human at 8 mg/m2 administered as 10 mins iv infusion; assay type: ADME, organism-based; set-up: route intravenous; details: in vivo
Homo sapiens [22] = experiment: Volume of distribution at steady state in human at 8 mg/m2 administered as 10 mins iv infusion; assay type: ADME, organism-based; details: in vivo
Homo sapiens [23] = experiment: Clearance in human at 16 mg/m2 administered as 10 mins iv infusion; assay type: ADME, organism-based; details: in vivo
[24] = AUC (0 to last) in human at 36 mg/m2, iv; assay type: ADME, organism-based; set-up: route intravenous, time 0 - last; details: in vivo
Homo sapiens [25] = experiment: Volume of distribution at steady state in human at 36 mg/m2, iv; assay type: ADME, organism-based; details: in vivo
HCT-116 [26] = experiment: Growth inhibition of human HCT116 cells over-expressing DHODH at 2 times antiproliferative IC50 after 72 hrs in presence of 5 uM uridine by MTT assay; assay type: functional
[27] = Thermodynamic aqueous solubility of the compound in pH 7.4 phosphate buffer at 6.4 mg/ml after overnight incubation by CLND method; assay type: physicochemical
[28] = Solubility of the compound in water at pH 7.4; assay type: physicochemical
[29] = Elimination half life in human at 16 mg/m2 administered as 10 mins iv infusion; assay type: ADME, organism-based; details: in vivo, read-out: beta t1/2 (converted)
[30] = AUC (0 to last) in human at 16 mg/m2 administered as 10 mins iv infusion; assay type: ADME, organism-based; set-up: route intravenous, time 0 - last; details: in vivo
[31] = AUC (0 to last) in human at 8 mg/m2 administered as 10 mins iv infusion; assay type: ADME, organism-based; set-up: time 0 - last, route intravenous; details: in vivo
[32] = Elimination half life in human at 36 mg/m2, iv; assay type: ADME, organism-based; details: in vivo, read-out: beta t1/2 (converted)
[33] = Elimination half life in human at 8 mg/m2 administered as 10 mins iv infusion; assay type: ADME, organism-based; details: in vivo, read-out: beta t1/2 (converted)
Homo sapiens [34] = experiment: Clearance in human at 8 mg/m2 administered as 10 mins iv infusion; assay type: ADME, organism-based; details: in vivo
Homo sapiens [35] = experiment: Volume of distribution at steady state in human at 16 mg/m2 administered as 10 mins iv infusion; assay type: ADME, organism-based; details: in vivo
[36] = Thermodynamic aqueous solubility of the compound in pH 7.4 phosphate buffer at 6.2 mg/ml after overnight incubation by CLND method; assay type: physicochemical

Row | SMILES | IC50 (HCT-116 [1]) | IC50 (MIA PaCa-2) | IC50 [2] | also measured
1 | O=C(O)c1cc(-c2ccc(-c3cncnc3)cc2)nc2ccccc12 | > 50 µM | > 50 µM | > 200000 nM | 
2 | Cc1ccc(-c2ccc(-c3nc4cnccc4c(C(=O)O)c3C)cc2)c(Cl)n1 | > 100 µM | > 100 µM | 5260 nM | 
3 | O=C(O)c1cc(-c2ccc(-c3cccnc3C(F)(F)F)cc2)nc2ccccc12 | 4.63 µM | 8.84 µM |  | 
4 | Cc1c(-c2ccc(-c3ccccc3)cc2)nc2cnc(C(F)(F)F)cc2c1C(=O)O | 0.88 µM | 2.18 µM | 21.2 nM | IC50 (HL-60): 2.67 µM
5 | Cc1ccncc1-c1ccc(-c2cc(C(=O)O)c3ccccc3n2)cc1 | 10.8 µM | 17.9 µM |  | 
6 | O=C(O)c1cc(-c2ccc(-c3cnccc3C(F)(F)F)cc2)nc2ccccc12 | 3.87 µM | 8.71 µM |  | 
7 | Cc1c(-c2ccc(-c3ccccc3)cc2)nc2cnccc2c1C(=O)O | 6.3 µM | 4.5 µM | 28.3 nM | IC50 (HL-60): 7.08 µM; Therm_solubility [3]: 2628.4 µM; Therm_solubility [4]: 3.0963 mM
8 | Cc1c(-c2ccc(-c3ccccc3F)cc2)nc2cnc(C(F)(F)F)cc2c1C(=O)O | 0.333 µM | 0.454 µM | 11.8 nM | IC50 (HL-60): 0.401 µM
9 | Cc1c(-c2ccc(-c3cccnc3Cl)cc2)nc2cnccc2c1C(=O)O | > 100 µM | > 100 µM | 259 nM | 
10 | Cc1ccc(-c2ccc(-c3nc4ccc(Cl)cc4c(C(=O)O)c3C)cc2)c(Cl)n1 | 2.71 µM | 7.56 µM |  | 
11 | O=C(O)c1cc(-c2ccc(-c3ncccn3)cc2)nc2ccccc12 | > 50 µM | > 50 µM | > 200000 nM | 
12 | COC(=O)c1cc(-c2ccc(N3CCCCC3)cc2)nc2ccccc12 | 38.2 µM | 31.8 µM | > 200000 nM | 
13 | Cc1c(-c2ccc(-c3ccccc3)cc2)nc2ccncc2c1C(=O)O | 26.7 µM | 28.1 µM | 2790 nM | 
14 | Cc1c(-c2ccc(-c3ccccc3)cc2)nc2ncccc2c1C(=O)O | > 100 µM | > 100 µM | 1220 nM | 
15 | COc1ncccc1-c1ccc(-c2cc(C(=O)O)c3ccccc3n2)cc1 |  | 13.6 µM |  | 
16 | Cc1c(-c2ccc(-c3cccnc3Cl)cc2)nc2cnc(C(F)(F)F)cc2c1C(=O)O | 25.7 µM | 21.5 µM | 201 nM | 
17 | Cc1c(-c2ccc(-c3cccnc3Cl)cc2)nc2ccc(F)cc2c1C(=O)O | 3.02 µM | 7.18 µM |  | Therm_solubility [5]: 982.1 µM; half-life [6]: 164 min; Vd/F [7]: 2.23 L/kg; AUC(0-t) [8]: 32300 ng·h/mL; AUC(0-inf) [9]: 32300 ng·h/mL; AUC(0-t) [10]: 35900 ng·h/mL; CL/F [11]: 9.25 mL/min/kg; AUC(0-inf) [12]: 36000 ng·h/mL; clearance [13]: 5.15 mL/min/kg; C0 [14]: 45400 ng/mL; F (Mus musculus): 56%; IC50 (HL-60): 9.28 µM; Vd [15]: 0.496 L/kg; Cmax [16]: 5310 ng/mL; Tmax [17]: 15 min; half-life [18]: 167 min; Therm_solubility [19]: 1000.1 µM
18 | COC(=O)c1cc(-c2ccc(C3CCCCC3)cc2)nc2ccccc12 | 42.6 µM | 37.1 µM | > 200000 nM | 
19 | COC(=O)c1cc(-c2ccc(-c3cccnc3)cc2)nc2ccccc12 | 6.15 µM | 6.43 µM | > 200000 nM | 
20 | Cc1c(-c2ccc(-c3cccnc3F)cc2)nc2ccc(F)cc2c1C(=O)O | 5.71 µM | 23.6 µM |  | 
21 | Cc1ccc(-c2ccc(-c3nc4ccc(F)cc4c(C(=O)O)c3C)cc2)c(Cl)n1 | 1.98 µM | 6.57 µM |  | IC50 (HL-60): 4.81 µM
22 | CC(C)c1ccc(-c2cc(C(=O)O)c3ccccc3n2)cc1 | 19.1 µM | 24.2 µM |  | 
23 | COc1ccccc1-c1ccc(-c2cc(C(=O)O)c3ccccc3n2)cc1 | 2.85 µM | 7.45 µM |  | 
24 | Cc1c(-c2ccc(-c3ccccc3F)cc2)nc2ccc(F)cc2c1C(=O)O [BREQUINAR] | 0.679 µM | 1.69 µM |  | Cmax [20]: 2700 ng/mL; Cmax [21]: 1800 ng/mL; Vdss (Homo sapiens [22]): 8.2 L/m2; CL (Homo sapiens [23]): 4.9 L/hr/m2; AUC(0-t) [24]: 20700 ng·h/mL; Vdss (Homo sapiens [25]): 7.48 L/m2; growth inhibition (GI) (HCT-116 [26]): <50%; Therm_solubility [27]: 1048.6 µM; solubility [28]: < 100 µg/mL; IC50 (HL-60): 0.544 µM; half-life [29]: 186 min; AUC(0-t) at 10 min [30]: 3800 ng·h/mL; AUC(0-t) at 10 min [31]: 3200 ng·h/mL; half-life [32]: 258 min; half-life [33]: 174 min; CL (Homo sapiens [34]): 3.2 L/hr/m2; Vdss (Homo sapiens [35]): 11.6 L/m2; Therm_solubility [36]: 1085.2 µM
25 | O=C(O)c1cc(-c2ccccc2)nc2ccccc12 [CINCHOPHEN] | > 100 µM | > 100 µM | 144000 nM | 
